Literature values as cited in patent publication US20250186613A1 (The Trustees of the University of Pennsylvania, priority 2022, published 2025).
Like-named read-outs stand apart in the source and are kept apart here.

Legend:
[1] = cited from earlier work
[2] = daily 0.05 mg/kg subcutaneous, cited from earlier work
GLP-2 receptor = molecular target: T1, GLP-2 receptor (Homo sapiens, UniProt O95838); conditions: relative to GLP2; cited from earlier work
T1 sequence (O95838 1-553): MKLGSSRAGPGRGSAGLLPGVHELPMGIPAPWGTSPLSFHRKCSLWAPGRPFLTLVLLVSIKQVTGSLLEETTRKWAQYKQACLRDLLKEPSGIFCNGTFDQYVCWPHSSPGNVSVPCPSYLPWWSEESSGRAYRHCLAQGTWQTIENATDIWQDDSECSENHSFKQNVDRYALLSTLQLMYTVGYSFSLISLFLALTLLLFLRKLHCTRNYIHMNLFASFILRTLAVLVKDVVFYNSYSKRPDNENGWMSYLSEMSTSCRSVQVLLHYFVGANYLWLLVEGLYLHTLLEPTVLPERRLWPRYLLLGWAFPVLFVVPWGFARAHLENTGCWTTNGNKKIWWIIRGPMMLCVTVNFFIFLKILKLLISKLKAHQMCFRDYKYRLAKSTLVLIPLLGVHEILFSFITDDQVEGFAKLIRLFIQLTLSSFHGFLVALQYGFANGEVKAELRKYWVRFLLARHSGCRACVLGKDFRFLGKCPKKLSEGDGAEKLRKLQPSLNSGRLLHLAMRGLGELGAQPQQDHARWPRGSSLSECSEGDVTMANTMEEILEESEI

In the case of `CC[C@H](C)[C@H](NC(=O)[C@H](Cc1ccccc1)NC(=O)[C@H](CC(=O)O)NC(=O)[C@H](CCCN=C(N)N)NC(=O)[C@H](C)NC(=O)[C@H](C)NC(=O)[C@H](CC(C)C)NC(=O)[C@H](CC(N)=O)NC(=O)[C@H](CC(=O)O)NC(=O)[C@H](CC(C)C)NC(=O)[C@@H](NC(=O)[C@@H](NC(=O)[C@H](CC(N)=O)NC(=O)[C@H](CCSC)NC(=O)[C@H](CCC(=O)O)NC(=O)[C@H](CC(=O)O)NC(=O)[C@H](CO)NC(=O)[C@H](Cc1ccccc1)NC(=O)[C@H](CO)NC(=O)CNC(=O)[C@H](CC(=O)O)NC(=O)[C@H](C)NC(=O)[C@@H](N)Cc1cnc[nH]1)[C@@H](C)O)[C@@H](C)CC)C(=O)N[C@@H](CC(N)=O)C(=O)N[C@@H](Cc1c[nH]c2ccccc12)C(=O)N[C@@H](CC(C)C)C(=O)N[C@H](C(=O)N[C@@H](CCC(N)=O)C(=O)N[C@H](C(=O)N[C@@H](CCCCN)C(=O)N[C@H](C(=O)N[C@H](C(=O)N[C@@H](CC(=O)O)C(=O)O)[C@@H](C)O)[C@@H](C)CC)[C@@H](C)O)[C@@H](C)CC` [GLP-2], the serum half-life ([1]; native peptide, cleaved by DPP IV) is given as 0.083 h.
In the case of `CC[C@H](C)[C@H](NC(=O)[C@H](Cc1ccccc1)NC(=O)[C@H](CC(=O)O)NC(=O)[C@H](CCCNC(=N)N)NC(=O)[C@H](C)NC(=O)[C@H](C)NC(=O)[C@H](CC(C)C)NC(=O)[C@H](CC(N)=O)NC(=O)[C@H](CC(=O)O)NC(=O)[C@H](CC(C)C)NC(=O)[C@@H](NC(=O)[C@@H](NC(=O)[C@H](CC(N)=O)NC(=O)[C@H](CCSC)NC(=O)[C@H](CCC(=O)O)NC(=O)[C@H](CC(=O)O)NC(=O)[C@H](CO)NC(=O)[C@H](Cc1ccccc1)NC(=O)[C@H](CO)NC(=O)CNC(=O)[C@H](CC(=O)O)NC(=O)CNC(=O)[C@@H](N)Cc1c[nH]cn1)[C@@H](C)O)[C@@H](C)CC)C(=O)N[C@@H](CC(N)=O)C(=O)N[C@@H](Cc1c[nH]c2ccccc12)C(=O)N[C@@H](CC(C)C)C(=O)N[C@H](C(=O)N[C@@H](CCC(N)=O)C(=O)N[C@H](C(=O)N[C@@H](CCCCN)C(=O)N[C@H](C(=O)N[C@H](C(=O)N[C@@H](CC(=O)O)C(=O)O)[C@@H](C)O)[C@@H](C)CC)[C@@H](C)O)[C@@H](C)CC` [Teduglutide], the “patients who achieved >20% reduction of PN volume per week from the baseline” value ([2]; 2 years of treatment) is listed as 90%, the “patients who obtained >1 additional days PN off per week from the baseline” value ([2]; 2 years of treatment) is listed as 70% and the PN volume ([2]; throughout 2 years of treatment) is listed as “sustained and continuous reduction of PN volume”. The serum half-life ([1]; A2G mutation for DPP IV resistance) was 1.5 h and the “T½ (h)” value ([1]; in vivo) was 1.5 (0.1) h.
For Apraglutide, the “EC50 (/GLP2)” value (GLP-2 receptor) is given as 0.5 /GLP2 and the “T½” value ([1]; in vivo) is given as 30 h.
In the case of Glepaglutide, the “EC50 (/GLP2)” value (GLP-2 receptor) is listed as 4 /GLP2 and the “T½” value ([1]; in vivo) is listed as 50 h.
